In publication PMC12136037, “Type II kinase inhibitors that target Parkinson’s disease–associated LRRK2” (Science Advances, 2025):

How the values were obtained:
Assay in all cases: DSF 100 kinase selectivity screen;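 also: compound tested at 20 µM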
Assay type in all cases: binding
[1] = molecular target: T1, ~100 representative kinases (Homo sapiens, UniProt P52564); settings: protein MAP2K6; average of three replicates
T1 construct: Recombinant protein kinase domains with a concentration of 2 μM
T1 sequence (P52564 1-334): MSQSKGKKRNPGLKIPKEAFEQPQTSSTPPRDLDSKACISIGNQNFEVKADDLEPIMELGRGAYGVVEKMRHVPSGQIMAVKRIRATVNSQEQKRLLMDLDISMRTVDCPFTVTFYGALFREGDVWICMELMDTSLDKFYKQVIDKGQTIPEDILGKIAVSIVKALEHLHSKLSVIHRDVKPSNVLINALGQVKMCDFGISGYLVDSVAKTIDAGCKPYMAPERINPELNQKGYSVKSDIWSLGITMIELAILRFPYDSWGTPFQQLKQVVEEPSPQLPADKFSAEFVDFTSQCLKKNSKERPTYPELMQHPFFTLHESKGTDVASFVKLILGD
Description: (§1) Recombinant protein kinase domains with a concentration of 2 μM were mixed with a 20 μM compound solution in dimethyl sulfoxide (DMSO), 20 mM Hepes (pH 7.5), and 500 mM NaCl. SYPRO Orange (5000×, Invitrogen) was added as a fluorescence probe (1μl/ml). Subsequently, temperature-dependent protein unfolding profiles were measured using the QuantStudio 5 realtime PCR machine (Thermo Fisher Scientific, Waltham, MA, USA). […] The temperature was raised with a step rate of 3°C/min. […] Differences in melting temperature are given as ΔTm values in degrees Celsius. […]

[2] = molecular target: T2, ~100 representative kinases (Homo sapiens, UniProt P45984); settings: protein MAPK9; average of three replicates
T2 construct: Recombinant protein kinase domains with a concentration of 2 μM
T2 sequence (P45984 whole entry, the tested form may be a part): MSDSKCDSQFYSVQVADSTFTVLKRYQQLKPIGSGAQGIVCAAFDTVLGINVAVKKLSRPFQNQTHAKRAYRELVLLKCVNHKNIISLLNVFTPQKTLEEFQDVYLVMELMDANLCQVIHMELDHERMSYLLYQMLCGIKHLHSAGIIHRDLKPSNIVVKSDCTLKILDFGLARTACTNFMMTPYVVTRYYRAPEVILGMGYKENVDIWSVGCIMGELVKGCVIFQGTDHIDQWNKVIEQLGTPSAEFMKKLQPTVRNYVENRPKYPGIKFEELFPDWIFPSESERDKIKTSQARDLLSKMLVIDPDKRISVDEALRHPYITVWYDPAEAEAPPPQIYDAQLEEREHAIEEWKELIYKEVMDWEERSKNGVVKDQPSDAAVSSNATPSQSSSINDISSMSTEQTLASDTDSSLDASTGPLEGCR
Description: as §1

[3] = molecular target: T3, ~100 representative kinases (Homo sapiens, UniProt Q6PHR2); settings: Protein ULK3; DSF; average of three replicates
T3 construct: Recombinant protein kinase domains with a concentration of 2 μM
T3 sequence (Q6PHR2 1-472): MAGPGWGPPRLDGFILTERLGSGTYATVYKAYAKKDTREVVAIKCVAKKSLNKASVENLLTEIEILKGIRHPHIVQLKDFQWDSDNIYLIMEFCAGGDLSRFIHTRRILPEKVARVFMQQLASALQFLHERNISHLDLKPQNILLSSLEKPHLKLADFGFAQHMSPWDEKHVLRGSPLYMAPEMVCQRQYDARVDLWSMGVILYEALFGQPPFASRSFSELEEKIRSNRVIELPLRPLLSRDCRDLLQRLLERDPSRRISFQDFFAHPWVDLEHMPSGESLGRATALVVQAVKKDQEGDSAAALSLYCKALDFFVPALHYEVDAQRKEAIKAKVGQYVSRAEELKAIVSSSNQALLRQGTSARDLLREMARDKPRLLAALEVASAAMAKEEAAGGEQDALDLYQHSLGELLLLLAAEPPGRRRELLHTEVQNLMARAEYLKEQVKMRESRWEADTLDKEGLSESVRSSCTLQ
Description: as §1

[4] = molecular target: T4, ~100 representative kinases (Homo sapiens, UniProt P54753); settings: Protein EPHB3A; average of three replicates
T4 construct: Recombinant protein kinase domains with a concentration of 2 μM
T4 sequence (P54753 34-998): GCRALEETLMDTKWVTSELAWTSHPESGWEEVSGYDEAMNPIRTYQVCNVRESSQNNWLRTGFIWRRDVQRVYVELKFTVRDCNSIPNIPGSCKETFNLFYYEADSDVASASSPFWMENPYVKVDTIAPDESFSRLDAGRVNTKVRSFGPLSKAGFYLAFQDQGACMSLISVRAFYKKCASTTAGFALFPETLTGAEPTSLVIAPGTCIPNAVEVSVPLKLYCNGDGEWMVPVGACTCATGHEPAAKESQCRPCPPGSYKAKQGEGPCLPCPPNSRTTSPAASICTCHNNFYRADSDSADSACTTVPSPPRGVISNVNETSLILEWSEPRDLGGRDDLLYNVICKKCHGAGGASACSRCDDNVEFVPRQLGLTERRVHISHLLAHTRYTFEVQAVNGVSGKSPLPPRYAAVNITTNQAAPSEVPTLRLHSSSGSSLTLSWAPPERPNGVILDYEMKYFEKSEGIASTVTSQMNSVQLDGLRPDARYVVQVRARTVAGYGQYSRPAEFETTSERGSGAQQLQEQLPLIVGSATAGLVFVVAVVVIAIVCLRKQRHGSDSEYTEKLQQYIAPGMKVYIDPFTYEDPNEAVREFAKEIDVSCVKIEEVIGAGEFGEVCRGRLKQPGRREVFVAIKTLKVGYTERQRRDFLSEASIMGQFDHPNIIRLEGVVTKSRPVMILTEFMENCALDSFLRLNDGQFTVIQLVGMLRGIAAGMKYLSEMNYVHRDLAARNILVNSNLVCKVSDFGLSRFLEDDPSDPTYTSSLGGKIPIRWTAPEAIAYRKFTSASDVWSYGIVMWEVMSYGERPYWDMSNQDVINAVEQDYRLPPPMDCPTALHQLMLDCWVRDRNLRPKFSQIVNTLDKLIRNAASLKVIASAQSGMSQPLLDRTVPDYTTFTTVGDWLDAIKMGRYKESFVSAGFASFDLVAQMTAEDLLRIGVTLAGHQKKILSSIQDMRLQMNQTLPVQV
Description: as §1

[5] = molecular target: T5, ~100 representative kinases (Homo sapiens, UniProt Q96SB4); settings: Protein SRPK1; DSF; average of three replicates
T5 construct: Recombinant protein kinase domains with a concentration of 2 μM
T5 sequence (Q96SB4 whole entry, the tested form may be a part): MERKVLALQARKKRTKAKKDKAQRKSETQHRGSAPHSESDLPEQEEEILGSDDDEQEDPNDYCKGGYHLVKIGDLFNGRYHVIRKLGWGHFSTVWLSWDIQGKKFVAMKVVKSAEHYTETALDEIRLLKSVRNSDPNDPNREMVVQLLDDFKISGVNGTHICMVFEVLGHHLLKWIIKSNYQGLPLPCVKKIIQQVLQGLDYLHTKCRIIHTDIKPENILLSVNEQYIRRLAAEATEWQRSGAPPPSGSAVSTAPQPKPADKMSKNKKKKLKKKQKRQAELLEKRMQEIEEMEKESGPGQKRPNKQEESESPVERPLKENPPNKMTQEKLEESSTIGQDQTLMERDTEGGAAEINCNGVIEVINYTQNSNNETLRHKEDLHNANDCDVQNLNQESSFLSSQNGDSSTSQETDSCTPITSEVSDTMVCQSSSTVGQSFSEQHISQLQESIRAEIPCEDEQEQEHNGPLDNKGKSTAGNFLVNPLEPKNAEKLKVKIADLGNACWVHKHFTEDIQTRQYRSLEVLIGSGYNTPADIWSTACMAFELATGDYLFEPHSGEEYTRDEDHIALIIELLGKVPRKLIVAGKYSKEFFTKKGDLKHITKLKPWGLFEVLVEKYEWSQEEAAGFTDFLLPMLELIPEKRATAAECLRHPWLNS
Description: as §1

Row | Structure (SMILES) | dTm [1] [K] | dTm [2] [K] | dTm [3] [K] | dTm [4] [K] | dTm [5] [K]
1 | CCSc1nc(NC)c2c(-c3cccc(NC(=O)Nc4cc(C(C)(C)C)nn4-c4ccc(C)cc4)c3)c[nH]c2n1 [Compound 32] | 0.13 | 11.55 | 0.44 | -3.33 | 0.80
2 | O=C(Nc1cccc(-c2c[nH]c3ncnc(N4CCOCC4)c23)c1)C1(C(=O)Nc2cccc3c2CCC3)CC1 [Compound 11] | 2.82 | 4.16 | 5.81 | 0.28 | 6.49
3 | Cc1ccc(-n2nc(C(C)(C)C)cc2NC(=O)Nc2cccc(-c3c[nH]c4nc(Cl)nc(N5CCOCC5)c34)c2)cc1 [Compound 30] | 0.45 | 3.39 | 0.27 | 0.0373 | 4.87
4 | C[C@@H]1CN(c2cc(-c3n[nH]c4ccc(OC5(C)CC5)cc34)ncn2)C[C@H](C)O1 [MLi2] | 0.18 | 0.30 | 0.19 | 0.06 | 0.11
5 | CC(C)(C)c1cc(NC(=O)Nc2cccc(-c3c[nH]c4ncnc(N5CCOCC5)c34)c2)n(-c2ccc3ncccc3c2)n1 [Compound 28] | 1.76 | 6.00 | 7.06 | 11.98 | 16.05
6 | COc1cc(C(=O)N2CCOCC2)c(F)cc1Nc1nc(N(C)C)c2c(Cl)c[nH]c2n1 [Compound 36] | 9.56 | 2.71 | 4.06 | -1.35 | 3.22

Now from value to compound:

Row | dTm [1] [K] | dTm [2] [K] | dTm [3] [K] | dTm [4] [K] | dTm [5] [K] | Structure (SMILES)
7 | 3.14 | 2.21 | 7.53 | 1.32 | 3.79 | Cc1cc(F)ccc1NC(=O)C1(C(=O)Nc2cccc(-c3c[nH]c4ncnc(N5CCOCC5)c34)c2)CC1 [Compound 24]
8 | 2.06 | 4.14 | 8.77 | 4.01 | 5.47 | CCc1ccc(NC(=O)C2(C(=O)Nc3cccc(-c4c[nH]c5ncnc(N6CCOCC6)c45)c3)CC2)cc1 [Compound 15]
9 | 0.82 | 1.53 | 5.26 | 0.59 | 3.35 | COc1ccc(NC(=O)C2(C(=O)Nc3cccc(-c4c[nH]c5ncnc(N6CCOCC6)c45)c3)CC2)cc1 [Compound 16]
10 | 3.07 | 3.60 | 8.22 | 0.65 | 11.40 | COc1cc(NC(=O)C2(C(=O)Nc3cccc(-c4c[nH]c5ncnc(N6CCOCC6)c45)c3)CC2)ccc1F [Compound 21]
11 | 2.36 | 2.95 | 7.52 | 1.94 | 8.69 | O=C(Nc1cccc(-c2c[nH]c3ncnc(N4CCOCC4)c23)c1)C1(C(=O)Nc2ccc(F)c(F)c2)CC1 [Compound 17]
